Counter-ions that a name gives are not always drawn.

The nature of data set [1]: Solubility in water (HPLC of filtrate). Format: physicochemical. Conditions: 50 mg in 8 mL deionized water, 0.45 micron filter, FIG. 7. Here is the method: In a test tube, 50 mg of the respective cannabinoid salt compound was suspended in 8 mL of deionized water and vortexed. The solution was filtered with a syringe equipped with 0.45 micron filter. HPLC was used to determine the quantity of dissolved cannabinoids.

Data set [2] can be described thus: Simulated gastric fluid (SGF) assay. In kind it is in vitro ADME. The following applies: pH 1.2-1.5, pepsin, 37° C.; for half-life at 10 µM: simulated gastric fluid with pepsin, read-out: half-life in a gastric environment (SGF). Here is the method: In a microcentrifuge tube, 626.5 μL of a solution containing 1.1× assay buffer (37.6 mM NaCI, pH 1.2-1.5) was diluted with 70 μL of a 10× pepsin solution (80,000 U/mL in milliQ water). […] The sample was incubated under the same conditions. At the specified time points, 150 μL aliquots of the sample were transferred to microcentrifuge tubes containing 24 μL of quenching solution (0.5 M NaHCO3). After vortexing for 5 seconds, 348 μL of protein precipitation solution containing an internal standard (25 μM Glyburide, ACN) was added. The tube was vortexed again for 20 seconds and stored in ice. Finally, the tubes were centrifuged at 5,000×g and 4° C. for 15 min. The percentage remaining CBDA or CBDA-arginine salt, respectively, compared to time zero, was quantified in the supernatant by HPLC/LC-MS or LC-MS/MS.

Turning to `C1CCC(NC2CCCCC2)CC1.CCCCCc1cc2c(c(O)c1C(=O)O)C1C=C(C)CCC1C(C)(C)O2` (centres unmarked) [THCA-DCHA salt], the solubility in water result in data set [1] is “virtually insoluble”. As for `CCCCCc1cc2c(c(O)c1C(=O)O)[C@@H]1C=C(C)CC[C@H]1C(C)(C)O2` [THCA, tetrahydrocannabinolic acid], the “half-life in a gastric environment (SGF)” value in data set [2] was “about 12.2 min”. The solubility in water result in data set [1] was “virtually insoluble”.

Turning to `C=C(C)[C@@H]1CCC(C)=C[C@H]1c1c(O)cc(CCCCC)c(C(=O)O)c1O` [CBDA, cannabidiolic acid], the half-life at 10 µM in data set [2] is about 19.7 min. The same measure, in the same setting: the same measure for `CCCCCc1cc2c(c(O)c1C(=O)O)[C@@H]1C=C(C)CC[C@H]1C(C)(C)O2` [THCA-arginine salt]: about 14.4 min.

Values taken from US20230135108A1, “C[…] COMPOUNDS AND METHODS OF MAKING SAME” (Canopy Growth Corporation, priority 2020, published 2023).
